Article PMC6204917, “Inhibitory effects of cannabidiol on voltage-dependent sodium currents” (The Journal of Biological Chemistry, 2018)

What was measured:
Type in all cases: cell-based
mNav1.6 = target: T1, mNav1.6 (Mus musculus, UniProt Q9WTU3); test: automated whole-cell voltage clamp (Qube-384)
T1 construct: gene Scn8a; full-length mouse alpha-subunit in HEK-293 cells with human beta1; with Sodium channel regulatory subunit beta-1 (human)

hNav1.3 = target: T2, hNav1.3 (Homo sapiens, UniProt Q9NY46); test: automated whole-cell voltage clamp (Qube-384)
T2 construct: gene SCN3A; full-length alpha-subunit in HEK-293 cells with human beta1; with Sodium channel regulatory subunit beta-1

hNav1.1 [1] = target: T3, hNav1.1 (Homo sapiens, UniProt P35498); test: automated whole-cell voltage clamp
T3 construct: gene SCN1A; full-length alpha-subunit in HEK-293 cells with human beta1; with Sodium channel regulatory subunit beta-1

hNav1.6 [2] = target: T4, hNav1.6 (Homo sapiens, UniProt Q9UQD0, N1768D); test: automated whole-cell voltage clamp
T4 construct: gene SCN8A; full-length alpha-subunit in HEK-293 cells with human beta1; with Sodium channel regulatory subunit beta-1

NaChBac = target: T5, NaChBac (Halalkalibacterium halodurans, UniProt Q9KCR8); test: whole-cell voltage clamp
T5 construct: gene BH1501; homotetrameric bacterial channel expressed in HEK-293 cells (construct not described)
T5 sequence (Q9KCR8 1-274): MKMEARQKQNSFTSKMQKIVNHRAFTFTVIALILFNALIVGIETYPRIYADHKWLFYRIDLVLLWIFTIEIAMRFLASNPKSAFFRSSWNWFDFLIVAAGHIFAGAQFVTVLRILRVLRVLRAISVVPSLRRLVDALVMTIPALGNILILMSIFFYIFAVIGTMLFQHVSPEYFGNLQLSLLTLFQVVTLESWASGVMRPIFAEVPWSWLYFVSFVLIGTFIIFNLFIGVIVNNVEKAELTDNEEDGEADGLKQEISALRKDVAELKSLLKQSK

hNav1.1 [3] = target: T6, hNav1.1 (Homo sapiens, UniProt P35498, F1774A); test: automated whole-cell voltage clamp
T6 construct: gene SCN1A; full-length alpha-subunit in HEK-293 cells with human beta1; with Sodium channel regulatory subunit beta-1

hNav1.5 = target: T7, hNav1.5 (Homo sapiens, UniProt Q14524); test: automated whole-cell voltage clamp (Qube-384)
T7 construct: gene SCN5A; full-length alpha-subunit in HEK-293 cells with human beta1; with Sodium channel regulatory subunit beta-1

hNav1.4 = target: T8, hNav1.4 (Homo sapiens, UniProt P35499); test: automated whole-cell voltage clamp (Qube-384)
T8 construct: gene SCN4A; full-length alpha-subunit in HEK-293 cells with human beta1; with Sodium channel regulatory subunit beta-1

hNav1.2 = target: T9, hNav1.2 (Homo sapiens, UniProt Q99250); test: manual whole-cell patch clamp
T9 construct: gene SCN2A; full-length alpha-subunit in HEK-293 cells with human beta1; with Sodium channel regulatory subunit beta-1

hNav1.6 [4] = target: T10, hNav1.6 (Homo sapiens, UniProt Q9UQD0); test: automated whole-cell voltage clamp
T10 construct: gene SCN8A; full-length alpha-subunit in HEK-293 cells with human beta1; with Sodium channel regulatory subunit beta-1

Compound	IC50 (mNav1.6)	IC50 (hNav1.3)	IC50 (hNav1.1 [1])	IC50 (hNav1.6 [2])	IC50 (NaChBac)	IC50 (hNav1.1 [3])	IC50 (hNav1.5)	IC50 (hNav1.4)	IC50 (hNav1.2)	IC50 (hNav1.6 [4])
C=C(C)[C@@H]1CCC(C)=C[C@H]1c1c(O)cc(CCCCC)cc1O [cannabidiol]	2400 ± 100 nM	3300 ± 100 nM	2500 ± 200 nM	10000 ± 700 nM	1500 ± 200 nM	4800 ± 200 nM	3800 ± 200 nM	1900 ± 100 nM	1300 ± 100 nM	3000 ± 100 nM
CCCCNc1ccc(C(=O)OCCN(C)C)cc1 [tetracaine]			1600 ± 100 nM			~44100 nM				
